In publication PMC12040169 (PLOS Biology, 2025) one finds viability data, which are given here for 80 molecules.

This data set in a line: in vitro. Particulars: human, hela cells, % viability.
On to `Cc1csc2c(C3CCN(C(=O)c4ccncc4)CC3)nc(C)n12` [CBK285243], for which the viability at 28.5 h, 10 µM is 84.4%.

Regarding `O=C(NCc1ccco1)c1cc(-c2ccc3[nH]ccc3c2)cnc1NCCOc1ccccc1` [CBK106388], the viability at 28.5 h, 10 µM worked out at 89.9%.

Regarding `Cc1ccc(S(=O)(=O)N2CC(=O)NC2=S)cc1` [CBK023293], the viability at 28.5 h, 10 µM came out at 94.5%.

Regarding `Cc1nc(CN2CCN(c3ccc4nnnn4n3)CC2)cs1` [CBK306056], the viability at 28.5 h, 10 µM came out at 79.3%.

With `Cc1nc(COc2ccc(Cl)cc2)sc1C(=O)N1CCC1` [CBK306353], the viability at 28.5 h, 10 µM was 88.5%.

As for `O=C(CSc1ccc(Cl)cc1)Nc1ccc(CN2CCOCC2)cc1` [CBK305855], the viability at 28.5 h, 10 µM turned out to be 89%.

On to `CC1(C)Cc2c(c(-c3ccco3)nc3n[nH]c(N)c23)CO1` [CBK009252], for which the viability at 28.5 h, 10 µM is 84.3%.

On to `Cc1nc(SCCn2cccn2)c2c(=O)n(C)c(=O)n(CC(C)C)c2n1` [CBK306321], for which the viability at 28.5 h, 10 µM came to 99.1%.

Turning to `c1ccc(-c2nccnc2OCCc2cccs2)cc1` [CBK106673], the viability at 28.5 h, 10 µM worked out at 103%.

On to `CC(C)(C)C1CCc2onc(C(=O)NCCn3ccnc3)c2C1` (centres unmarked) [CBK281581], for which the viability at 28.5 h, 10 µM stood at 87.1%.

`COc1ccc(-c2nn(C)c(=O)c3ccccc23)cc1CNC(=O)c1cc([N+](=O)[O-])ccc1OC` [CBK266229]: the viability at 28.5 h, 10 µM was found to be 116%.

Regarding `CCC1CCCCN1C(=O)c1ccc(C(C)(C)C)cc1` (centres unmarked) [CBK076644], the viability at 28.5 h, 10 µM was found to be 103%.

For the molecule `CC(=O)N[C@H]1C[C@@H](Cc2cc(CN3CCN(c4ccccc4)CC3)on2)C1(C)C` [CBK289241], the viability at 28.5 h, 10 µM stood at 109%.

With `CCCCc1c(O)[nH]c2nc3ccccc3n2c1=O` [CBK287875], the viability at 28.5 h, 10 µM came out at 98.1%.

`CC(=O)Nc1ccc(Nc2cc(-c3ccc(CC(C)C)cc3)ncn2)cc1` [CBK090723]: the viability at 28.5 h, 10 µM is 99.4%.

Turning to `CC(C)COC(=O)CCNc1n[nH]c(=O)[nH]c1=O` [CBK293920], the viability at 28.5 h, 10 µM is 86.2%.

Take `O=C(Nc1cccc(Cl)c1Cl)c1cccs1` [CBK057672]: the viability at 28.5 h, 10 µM was 104%.

For `Sc1nnc(-c2cccc(Br)c2)o1` [CBK288432], the viability at 28.5 h, 10 µM came to 101%.

As for `Oc1ccc(-c2cncc(Nc3ccc(Br)c(Cl)c3)n2)cc1` [CBK107806], the viability at 28.5 h, 10 µM is 89.4%.

Take `CCN(CC)CC1CCCCC1=O` (centres unmarked) [CBK023965G]: the viability at 28.5 h, 10 µM amounted to 93.9%.

Consider `COc1ccc(OC)c(C(O)c2coc3ccc(O)c(CN(C)C)c23)c1` (centres unmarked) [CBK261314], for which the viability at 28.5 h, 10 µM came to 114%.

`CCC1(C)CC(C(N)=S)CCO1` (centres unmarked) [CBK008954]: the viability at 28.5 h, 10 µM amounted to 97%.

As to `Cc1ccc(-c2nccnc2OCCOc2ccccc2)cc1C` [CBK106865], the viability at 28.5 h, 10 µM was 90.8%.

On to `CCCC(=O)Nc1ccc(C(=O)Nc2ccccc2C(=O)O)cc1` [CBK265111], for which the viability at 28.5 h, 10 µM amounted to 121%.

Regarding `CCn1c(-c2ccc(C)cc2)cnc1SCC(=O)N1CCN(C(C)=O)CC1` [CBK296925], the viability at 28.5 h, 10 µM is 110%.

Take `O=[N+]([O-])c1cc(C(F)(F)F)ccc1NCCCNc1nc(N2CCOCC2)nc2ccccc12` [CBK266567]: the viability at 28.5 h, 10 µM is 112%.

Consider `O=C(O)c1ccc2c(c1)C(=O)N(c1ccc(C3(c4ccc(N5C(=O)c6ccc(C(=O)O)cc6C5=O)cc4)c4ccccc4-c4ccccc43)cc1)C2=O` [CBK261195], for which the viability at 28.5 h, 10 µM was determined as 92.2%.

Consider `O=C(NC(Cc1ccsc1)c1cccnc1)C1CCOC1` (centres unmarked) [CBK285116], for which the viability at 28.5 h, 10 µM is 106%.

`COc1ccc(OC)c(NC(=O)c2ccccc2C(=O)O)c1` [CBK287082]: the viability at 28.5 h, 10 µM came out at 86.9%.

In the case of `O=C(O)c1ccc(NS(=O)(=O)c2ccc(C(F)(F)F)cc2[N+](=O)[O-])cc1` [CBK034063], the viability at 28.5 h, 10 µM worked out at 113%.

On to `CCOc1cc(C=O)ccc1OCc1c(C)no[n+]1[O-]` [CBK263449], for which the viability at 28.5 h, 10 µM turned out to be 92.1%.

Regarding `O[C@H](CNCc1ccccc1)COc1cccc2c1C1CCC2CC1` [CBK000370], the viability at 28.5 h, 10 µM was 92.6%.

Consider `O=c1[nH]c(CN2CCN(c3ncccn3)CC2)nc2ccccc12` [CBK269918], for which the viability at 28.5 h, 10 µM turned out to be 98.3%.

As for `CNC(=O)CN1C(=O)CC2(C1=O)C(=O)N(CCOC)c1ccc(C)cc12` (centres unmarked) [CBK075401], the viability at 28.5 h, 10 µM worked out at 97.1%.

Regarding `COc1cc(C(=O)N2CCN(S(=O)(=O)c3ccccc3[N+](=O)[O-])CC2)cc(OC)c1OC` [CBK264182], the viability at 28.5 h, 10 µM came to 105%.

As to `Nc1nc(NCCOc2ccccc2F)cc(C2CCOC2)n1` (centres unmarked) [CBK306559], the viability at 28.5 h, 10 µM is 78.2%.

For the molecule `CC(C)C(=O)NC(NC(=S)Nc1sc2c(c1C(N)=O)CCCC2)C(Cl)(Cl)Cl` (centres unmarked) [CBK261050], the viability at 28.5 h, 10 µM worked out at 94%.

For the molecule `Cn1cc(C2CCCCCN2S(=O)(=O)c2ccc3[nH]c(=O)[nH]c(=O)c3c2)cn1` (centres unmarked) [CBK286406], the viability at 28.5 h, 10 µM was 103%.

Regarding `COC(=O)[C@@H]1Cc2ncn(C)c2CN1C(=O)c1ccc(C#N)cc1` [CBK288994], the viability at 28.5 h, 10 µM stood at 76.5%.

Turning to `C=CCn1c(S)nnc1-c1ccc(Br)cc1` [CBK096756], the viability at 28.5 h, 10 µM turned out to be 77.3%.

Consider `Nc1nc(NCCOc2ccccc2Cl)cc(C2CC(N)C2)n1` (centres unmarked) [CBK306825], for which the viability at 28.5 h, 10 µM worked out at 75.2%.

Consider `CC(=O)N1CCc2ccc(NC(=O)c3cncc(-c4ccc(C(=O)N5CCOCC5)cc4)c3)cc21` [CBK160217], for which the viability at 28.5 h, 10 µM stood at 77.8%.

For the molecule `COc1cc(CNC(=O)N2CCCC(CO)C2)cc(OC)c1OC` (centres unmarked) [CBK156041], the viability at 28.5 h, 10 µM stood at 91.5%.

Turning to `Cn1ccnc1C(O)(c1ccccc1)c1nccn1C` [CBK262084], the viability at 28.5 h, 10 µM amounted to 97.6%.

For the molecule `Cc1c(CC(=O)O)c2c(n1Cc1ccc(F)cc1)CCCC2=O` [CBK287078], the viability at 28.5 h, 10 µM stood at 103%.

Turning to `O=C(O)CCCn1cc(NC(=O)c2cccs2)cn1` [CBK270122], the viability at 28.5 h, 10 µM came to 88.1%.

As to `O=C(NCCN1CCOCC1)N1CCN(CCc2ccccc2)CC1` [CBK158908], the viability at 28.5 h, 10 µM came to 85.5%.

For `Cc1cc(S(=O)(=O)N(c2ccc(C(C)(C)C)cc2)C2CCNCC2)c(C)s1` [CBK165075T], the viability at 28.5 h, 10 µM amounted to 105%.

For the molecule `Cc1ccc2nc(-c3ccncc3)cc(C(=O)N3CCN(C4CCCCC4)CC3)c2c1` [CBK267736], the viability at 28.5 h, 10 µM came out at 96.4%.

Turning to `O=C(NC1CCN(CC2(c3ccccc3)CC2)CC1)C1CCOCC1` [CBK285352], the viability at 28.5 h, 10 µM is 94.4%.

As for `O=c1[nH]c2ncc(-c3ccoc3)nc2n1Cc1cccs1` [CBK064647], the viability at 28.5 h, 10 µM worked out at 90.3%.

In the case of `Cc1cc(O)c(C(C)C)cc1N1C(=O)c2ccc([N+](=O)[O-])cc2C1=O` [CBK115323], the viability at 28.5 h, 10 µM is 97.7%.

`Cc1ncc([N+](=O)[O-])n1CCSc1nnc(SCc2ccccc2)s1` [CBK264751]: the viability at 28.5 h, 10 µM came to 86.4%.

Take `COC(=O)c1ccccc1NC(=O)CNC(=O)c1ccc(Cl)cc1Cl` [CBK267860]: the viability at 28.5 h, 10 µM turned out to be 105%.

`Cc1nc2c(s1)C[C@@H]1[C@](C)(CO)[C@H](O)CC[C@@]1(C)[C@@H]2CC(=O)O` [CBK289571]: the viability at 28.5 h, 10 µM worked out at 93.3%.

As for `Cc1n[nH]cc1-c1nsc(Nc2ccccc2)n1` [CBK113680], the viability at 28.5 h, 10 µM came to 92.2%.

Take `COc1ccc(CCNc2oc(COc3ccccc3)nc2C#N)cc1` [CBK074469]: the viability at 28.5 h, 10 µM was 90.2%.

Take `COc1cc(-c2ccc(NCCn3cc[nH]c3=O)nc2)cc(OC)c1OC` [CBK036907]: the viability at 28.5 h, 10 µM worked out at 106%.

Turning to `Cc1ccc(S(=O)(=O)N(CC(=O)Nc2cccnc2)c2ccc(F)cc2)cc1` [CBK263968], the viability at 28.5 h, 10 µM is 85.6%.

Regarding `COc1ccccc1CC(=O)N1CCC(c2onc3c2CCC3)CC1` [CBK284464], the viability at 28.5 h, 10 µM is 99.2%.

Consider `Cc1nn(-c2ccccn2)c(C)c1[C@@H]1C=C[C@@H](NC(=O)CCC(=O)O)C1` [CBK289170], for which the viability at 28.5 h, 10 µM is 81.9%.

For the molecule `CC(C)Nc1cc(SCCN(C)C)ncn1` [CBK105616], the viability at 28.5 h, 10 µM came to 109%.

In the case of `CC1=C(C(=O)Nc2ccc(Cl)cc2Cl)SCCO1` [CBK057784], the viability at 28.5 h, 10 µM came to 96.5%.

As to `COc1cc(Nc2cncc(-c3cccs3)n2)cc(OC)c1OC` [CBK065663], the viability at 28.5 h, 10 µM came to 80.4%.

On to `c1csc(COc2nccnc2-c2ccsc2)c1` [CBK106770], for which the viability at 28.5 h, 10 µM worked out at 100%.

On to `COc1ccc(NC2=NN(c3ccccc3)C(=O)C2)cc1` [CBK288085], for which the viability at 28.5 h, 10 µM came out at 104%.

Regarding `CCOc1ccc(CN(C)C(C)C(=O)Nc2cc(C)no2)cc1` (centres unmarked) [CBK305607], the viability at 28.5 h, 10 µM was 96.6%.

In the case of `Cc1ccc(CN2C(=O)CSC2c2cn(-c3ccccc3)nc2-c2ccccc2)cc1` (centres unmarked) [CBK263678], the viability at 28.5 h, 10 µM stood at 94.5%.

Take `CCCCSc1nc(N)cc(N2CCC(C(=O)NCC)C2)n1` (centres unmarked) [CBK306880]: the viability at 28.5 h, 10 µM is 88.2%.

`CSc1nc2ccc(S(=O)(=O)N3CCCC3)cc2s1` [CBK268400]: the viability at 28.5 h, 10 µM is 104%.

With `Clc1cccc(Cl)c1CN(Cc1ccccc1)c1ncnc2[nH]cnc12` [CBK266571], the viability at 28.5 h, 10 µM stood at 95.2%.

For `O=C1OCCN1S(=O)(=O)c1ccc(CN2CCCN(Cc3ccc(S(=O)(=O)N4CCOC4=O)cc3)CC2)cc1` [CBK024728], the viability at 28.5 h, 10 µM came out at 87.1%.

Regarding `CCc1cc2c(=O)c(-c3nc4ccccc4n3C)c(C)oc2c(CN2CCOCC2)c1O` [CBK262124], the viability at 28.5 h, 10 µM came to 94.1%.

As to `O=C(O)CSc1nnc(-c2ccncc2)n1-c1ccc(Cl)cc1` [CBK266686], the viability at 28.5 h, 10 µM was determined as 92.1%.

In the case of `COCc1cc(C)nc2sc(C(N)=O)c(N)c12` [CBK018149], the viability at 28.5 h, 10 µM amounted to 93%.

For the molecule `Nc1ncc(-c2ccc(Cl)cc2)c(C2CCCN(C(=O)Cc3c[nH]c4ccccc34)C2)n1` (centres unmarked) [CBK285574], the viability at 28.5 h, 10 µM is 113%.

With `CC(=O)N1C[C@H]2CCCN(S(=O)(=O)c3cccs3)[C@H]2C1` [CBK285275], the viability at 28.5 h, 10 µM came out at 84.3%.

For `O=C(Nc1cc2nn(-c3ccccc3)nc2cc1Cl)c1ccc(-c2cccc([N+](=O)[O-])c2)o1` [CBK266271], the viability at 28.5 h, 10 µM was determined as 94%.

As to `NC(=O)c1c(NC(=O)CSc2ccc(Cl)cc2)sc2c1CCCC2` [CBK263101], the viability at 28.5 h, 10 µM turned out to be 77.7%.

As to `Cc1c(C(=O)Nc2cccc(-c3nc4ccccc4s3)c2)sc2nc[nH]c(=O)c12` [CBK285825], the viability at 28.5 h, 10 µM was 80.5%.

The viability is a read-out of living cells in per cent, often relative to untreated cells.
